Data as given in paper PMC8804135 (Neurotherapeutics, 2021).
Numbered stars: 1 amine (or outer) side, 2 acyl side, 3 side chain; on linkers, the order of the positions; unused ones are H or OH. Bridge positions count the residues as written; N and C are the ends. Square brackets hold non-standard residues; d marks the D form. Peptide text beside a SMILES is read from it. dAbu(3S-yl) = C[C@@H]([C@@H](N[*:1])C(=O)[*:2])[*:3]; pGlu = O=C1CC[C@@H](C(=O)O)N1

Key:
[1] = Hydrophobicity and solubility of the peptide for intranasal formulation; type: physicochemical; conditions: in 10% (2-hydroxypropyl)-ß-cyclodextrin (HBC)
Description: For intranasal delivery, 1 mg of M89b was first dissolved in 566 µl 2,2,2-trifluorethanol, 566 µl 10% (2-hydroxypropyl)-ß-cyclodextrin (HBC), and 1 µl acetic acid and incubated at 60 °C for 20 min. Another 566 µl of 10% HBC were added. The peptide was then dried in a speed-vac, and the dried pellet was dissolved in 1132 µl water by vortexing and incubation at 60 °C. M871 and GALP were purchased from GL Biochem. M871 was dissolved in saline containing 10% HBC. GALP was dissolved in saline containing 5% α-cyclodextrin.

[2] = target: T1, GAL1R (Homo sapiens, UniProt P47211); test: PathHunter eXpress β-arrestin recruitment assay, GAL1R; type: cell-based; parameters: expressed in transfected cells; conditions: Table 3; CHO-K1 cells co-expressing GAL1R and β-arrestin 2; 10 µM to 5 nM; (average) ratio, (n) in cell = number of assays; NA = ratio above 1000
T1 sequence (P47211 1-349): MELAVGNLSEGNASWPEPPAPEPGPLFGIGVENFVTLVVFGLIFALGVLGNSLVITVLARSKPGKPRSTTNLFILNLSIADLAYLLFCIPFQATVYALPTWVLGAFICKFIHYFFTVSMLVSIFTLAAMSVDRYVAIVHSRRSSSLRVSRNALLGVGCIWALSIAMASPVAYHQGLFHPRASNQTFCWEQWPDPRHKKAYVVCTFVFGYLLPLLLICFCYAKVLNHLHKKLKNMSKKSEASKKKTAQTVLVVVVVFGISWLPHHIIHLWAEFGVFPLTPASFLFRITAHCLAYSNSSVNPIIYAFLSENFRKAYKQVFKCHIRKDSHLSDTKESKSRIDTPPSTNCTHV
Description: To evaluate the ability of lanthipeptides to recruit ß-arrestins via GAL1R or via GAL2R, we used the PathHunter® eXpress GAL1R, CHO-K1, β-arrestin GPCR Assay and the PathHunter® eXpress GAL2R, CHO-K1, β-arrestin, GPCR Assay from Eurofins-DiscoverX. The assays were performed according to the manufacturer’s instructions. Briefly, for one assay, CHO-K1 cells co-expressing GAL1R or GAL2R and β-arrestin (isoform 2) were diluted in AssayComplete™ Cell Plating Reagent, and 100 µl was seeded into each well of a 96-well plate. The plate was incubated at 37 °C, 5% CO2 in a humidified incubator. A serial 3 × dilution of the lanthipeptides in water was made (10 µM to 5 nM). After 48 h of incubation, 10 µl of the serial dilutions was applied to the cells in duplicate. The agonists were incubated for 90 min at 37 °C. Next, 55 µL of Working Detection Solution was added, and after 1 h of incubation at room temperature in the dark, the chemiluminescent signal was read with a Synergy HT Biotek reader.

SMILES: CC(C)C[C@H](NC(=O)[C@H](CC(C)C)NC(=O)[C@H](Cc1ccc(O)cc1)NC(=O)CNC(=O)[C@H](C)NC(=O)[C@H](C)NC(=O)[C@H](CC(N)=O)NC(=O)[C@H](CC(C)C)NC(=O)[C@H](CC(N)=O)NC(=O)[C@H](Cc1c[nH]c2ccccc12)NC(=O)[C@@H]1CCC(=O)N1)C(=O)N[C@@H](C)C(=O)N[C@H]1C(=O)N[C@@H](Cc2c[nH]cn2)C(=O)N[C@@H](C)C(=O)N[C@H](C(=O)NCC(=O)O)CS[C@H]1C [Variant M89b, G1pE-T3N-S6A-G12A-methyllanthionine[13–16]-galanin-(1–17)] ([pGlu]WNLNAAGYLLA[dAbu(3S-yl)]HACG-OH; thioether 13-16; C-terminus assumed)
- Solubility [1]: improved solubility
- EC50 ratios to Gal-(1-15), GAL1R ß-Arrestin [2]: NA (3) (NA is not active; ratios above 1000 were considered to be not active)
